Results published in patent US11318190B2, “Methods and compositions for treating liver disease” (UNITED STATES GOVERNMENT AS REPRESENTED BY THE DEPARTMENT …, priority 2017, dated 2022).

Legend:
dnTGF-βRII mice [1] = assay: dnTGF-βRII mice 12 wk (early stage PBC model) treated 1 wk by osmotic minipump; format: in vivo, mouse; conditions: dnTGF-βRII 12 wk; for intrahepatic bile duct mass (IBDM, CK-19): 1 wk minipump
Protocol: (§1) Briefly, we used wild-type (WT), dnTGFβRII 12 wk and dnTGFβRII 34 wk mice treated with control or SR antagonist (SCT 5-27) minipump (10 μg/kg/day) for 1 wk. Hepatic damage was shown by H&E. IBDM and cholangiocyte proliferation were measured by immunohistochemistry for CK-19 and Ki67, respectively. Biliary apoptosis was evaluated by TUNEL staining. Senescence was measured in cholangiocytes by immunofluorescence for CCL2 or p16 co-stained with CK-19 (to image bile ducts) and SA-β-Galactosidase activity. Hepatic fibrosis was assessed by qPCR for collagen-1a and α-SMA in total liver, and quantification of Sirius Red staining. Hepatic stellate cell (HSC) activation was evaluated by immunofluorescence (IF) for Syp-9. HSC senescence was evaluated by IF for CCL2 or p16 co-stained with desmin (to visualize HSCs). Secretin levels in serum and bile were measured by EIA. Bile and serum were obtained from human control, early PBC and advanced PBC patients, and secretin was evaluated by EIA.
(§2) All animal procedures were performed according to protocols approved by the Baylor Scott & White Health IACUC Committee. Transgenic mice expressing a dominant-negative form of the human transforming growth factor-beta receptor II (dnTGF-βRII) were obtained from Dr. M. Eric Gershwin at UC Davis Health (Sacramento, Calif.), and background-matched wild-type (WT, strain C57BL/6) mice were purchased from Charles River Laboratories (Wilmington, Mass.); the breeding colony is established in our animal facility. Animals were maintained in micro-isolator cages in a temperature-controlled environment with 12/12-hr light/dark cycles and fed ad libitum standard chow with free access to drinking water. Studies were performed in 12 wk-old WT mice, and 12 wk-old (mimic early stage PBC) and 32 wk-old (mimic late stage PBC) female and male dnTGF-βRII mice (25-30 gm) that were treated with either saline, secretin (Sct; 2.5 nmoles/kg body weight per day; Bachem, Torrance, Calif.) or the secretin receptor (SR) antagonist, Sec 5-27 (10 μg/kg body weight per day; Thermo Fisher Scientific, Waltham, Mass.) for 1 wk by intraperitoneally implanted osmotic minipump. Liver tissue samples and blocks (formalin-fixed, paraffin-embedded and OCT-embedded), serum, bile, cholangiocytes, and cholangiocyte supernatants (after incubation at 37° C. for 4 hr) were collected as described.
(§3) Hematoxylin and eosin (H&E) staining was performed in formalin-fixed, paraffin-embedded liver sections (4-5 μm, 3 samples from 3 different animals) to determine liver morphology. H&E stained liver sections were evaluated by a board-certified pathologist to assess the degree of lobular damage, hepatic necrosis and portal inflammation. At least 10 different portal areas were evaluated for each parameter. Liver sections were examined in a coded fashion by BX-51 light microscopy (Olympus, Tokyo, Japan) equipped with a camera (See, Mancinelli, R et al., Ischemia reperfusion of the hepatic artery induces the functional damage of large bile ducts by changes in the expression of angiogenic factors. Am J Physiol Gastrointest Liver Physiol 2015; 309:G865-873 (2015); Taffetani S et al., Prolactin stimulates the proliferation of normal female cholangiocytes by differential regulation of Ca2+-dependent PKC isoforms, BMC Physiol 7:6 (2007)).
(§4) Serum levels of alkaline phosphatase (ALP) and γ-glutamyltransferase (γGT) are commonly used to diagnose PBC (Heathcote, E J, Management of primary biliary cirrhosis. The American Association for the Study of Liver Diseases practice guidelines, Hepatology 31:1005-1013 (2000)); therefore, were measured serum levels of ALP and γGT in mouse serum samples using the Alkaline Phosphatase Assay Kit and γ-Glutamyltransferase Activity Colorimetric Assay Kit, respectively (Abcam; Cambridge, Mass.).
(§5) Early stage PBC is identified by cholangiocyte proliferation, whereas late stage PBC is characterized by ductopenia. […]

dnTGF-βRII mice [2] = assay: dnTGF-βRII mice 32-34 wk (late stage PBC model) treated 1 wk by osmotic minipump; format: in vivo, mouse; conditions: for intrahepatic bile duct mass (IBDM, CK-19): 1 wk minipump
Protocol: as §1, §2, §3, §4, §5

[3] = system: human hepatic stellate cells (hHSC); assay: hHSC activation by cholangiocyte supernatants from treated mice (qPCR); format: cell-based
Protocol: In vitro experiments were performed in human hepatic stellate cells (hHSC) that were purchased from ScienCell Research Laboratories (Carlsbad, Calif.) that were maintained in standard conditions.
[…] Activation of hHSCs was determined by qPCR for FN-1, TGF-β1, α-SMA, and collagen type-1a (Kennedy, L L et al., Knockout of microRNA-21 reduces biliary hyperplasia and liver fibrosis in cholestatic bile duct ligated mice, Lab Invest 96:1256-1267 (2016)).

Mdr2−/− mice = conditions: cited from earlier work
[4] = vs saline treated, listed as SR antagonist
[5] = dnTGF-βRII 32/34 wk, vs saline treated
[6] = dnTGF-βRII 32/34 wk, listed as SR antagonist

15-lysine-secretin-(5-27) [SCT 5-27]
further decrease: Sct, SR, CFTR and AE2 expression (dnTGF-βRII mice [2]; [5])
significantly reduced: collagen content / deposition (Sirius Red), hepatic fibrosis (dnTGF-βRII mice [1]; vs saline treated) | intrahepatic bile duct mass (IBDM, CK-19) (dnTGF-βRII mice [1]; vs saline treated)
further reduced: intrahepatic bile duct mass (IBDM, CK-19) (dnTGF-βRII mice [2]; [5]) | biliary growth / cholangiocyte proliferation (dnTGF-βRII mice [2]; dnTGF-βRII 34 wk)
further increased: biliary senescence (p16, p18, p21, CCL2) (dnTGF-βRII mice [2]; dnTGF-βRII 32/34 wk) | cholangiocyte apoptosis (TUNEL) (dnTGF-βRII mice [2]; dnTGF-βRII 32/34 wk) | collagen content / deposition (Sirius Red), hepatic fibrosis (dnTGF-βRII mice [2]; [6])
decreased: biliary senescence (p16, p18, p21, CCL2) (dnTGF-βRII mice [1]; listed as SR antagonist) | intrahepatic bile duct mass (IBDM, CK-19) (dnTGF-βRII mice [2]; dnTGF-βRII 32/34 wk, vs saline treated, listed as SR antagonist) | TGF-β1/TGF-β1 receptor axis expression (Mdr2−/− mice; Mdr2−/− mice)
reduced: HSC activation (SYP-9 staining) (dnTGF-βRII mice [1]) | biliary senescence (p16, p18, p21, CCL2) (dnTGF-βRII mice [1]) | cholangiocyte proliferation (Ki67) (dnTGF-βRII mice [1]) | liver damage (H&E: portal inflammation, inflammatory infiltration, lobular necrosis) (dnTGF-βRII mice [1]) | secretin levels (serum and bile, EIA) (dnTGF-βRII mice [1]) | Sct, SR, CFTR and AE2 expression (dnTGF-βRII mice [1]; vs saline treated) | serum levels of ALP and γGT (dnTGF-βRII mice [1]; vs saline treated) | intrahepatic bile duct mass (IBDM, CK-19) (dnTGF-βRII mice [1]; [4]) | secretin levels (serum; serum and bile) (dnTGF-βRII mice [2]; dnTGF-βRII 34 wk) | expression of FN-1, TGF-β1, α-SMA and collagen type-1a in hHSCs ([3]; cholangiocyte supernatants from treated dnTGF-βRII mice 12 wks) | hepatic fibrosis and HSC activation (Mdr2−/− mice; BDL and Mdr2−/− mouse model of PSC) | biliary mass and HSCs activation (Mdr2−/− mice; Mdr2−/− mice)
ameliorated: collagen content / deposition (Sirius Red), hepatic fibrosis (dnTGF-βRII mice [1]; [4]) | liver damage (H&E: portal inflammation, inflammatory infiltration, lobular necrosis) (dnTGF-βRII mice [1]; listed as SR antagonist)
increased: HSC senescence (dnTGF-βRII mice [1]) | cholangiocyte apoptosis (TUNEL-positive cholangiocytes) (dnTGF-βRII mice [1]; listed as SR antagonist) | collagen content / deposition (Sirius Red), hepatic fibrosis (dnTGF-βRII mice [2]; dnTGF-βRII 32/34 wk) | biliary senescence (p16, p18, p21, CCL2) (dnTGF-βRII mice [2]; [6]) | HSC activation (SYP-9) (dnTGF-βRII mice [2]; dnTGF-βRII 34 wk)
exacerbated: cholangiocyte apoptosis (TUNEL) (dnTGF-βRII mice [2]; [6]) | liver damage (H&E) (dnTGF-βRII mice [2]; dnTGF-βRII 34 wk)
enhanced: cholangiocyte apoptosis (TUNEL-positive cholangiocytes) (dnTGF-βRII mice [1]) | HSC activation (SYP-9) (dnTGF-βRII mice [2]; dnTGF-βRII 34 wk, listed as SR antagonist) | expression of FN-1, TGF-β1, α-SMA and collagen type-1a in hHSCs ([3]; cholangiocyte supernatants from treated dnTGF-βRII mice 34 wks)
